Where a SMILES comes first, the peptide text is derived from it.
Experiments:
[1] = tested on: Tryptase, from human lung; assay: Enzymatic assay, tryptase; conditions: at 100 μM
[2] = tested on: HELA cells (Acc57); assay: Cytotoxicity assay (MTT reduction), HELA cells; assay type: cell-based; conditions: Hela cells
Protocol: The cytotoxicity of the peptides to HELA cells (Acc57) and COS-7 cells (CRL-1651) was determined using the MTT reduction assay [see ref. 2 and 3, below]. Briefly the method was as follows: HELA cells and COS-7 cells were seeded at 7.0×10^3 and, respectively, 4.5×10^3 cells per well and grown in 96-well microtiter plates for 24 hours at 37° C. at 5% CO2. At this point, time zero (Tz) was determined by MTT reduction (see below). The supernatant of the remaining wells was discarded, and fresh medium and the peptides in serial dilutions of 12.5, 25 and 50 μM were pipetted into the wells. Each peptide concentration was assayed in triplicate. Incubation of the cells was continued for 48 hours at 37° C. at 5% CO2. Wells were then washed once with phosphate buffered saline (PBS) and subsequently 100 μl MTT reagent (0.5 mg/ml in medium RPMI1640 and, respectively, DMEM) were added to the wells. This was incubated at 37° C. for 2 hours and subsequently the medium was aspirated and 100 μl isopropanol were added to each well. The absorbance at 595 nm of the solubilized product was measured (OD595peptide). For each concentration averages were calculated from triplicates. The percentage of growth was calculated as follows: (OD595peptide-OD595Tz-OD595Empty well)/(OD595Tz-OD595Empty well)×100% and was plotted for each peptide concentration.
The LC 50 values (Lethal Concentration, defined as the concentration that kills 50% of the cells) were determined for each peptide by using the trend line function of EXCEL (Microsoft Office 2000) for the concentrations (50, 25, 12.5 and 0 μM), the corresponding growth percentages and the value −50, (=TREND(C50:C0,%50:%0,−50)).
The GI 50 (Growth Inhibition) concentrations were calculated for each peptide by using a trend line function for the concentrations (50, 25, 12.5 and 0 μg/ml), the corresponding percentages and the value 50, (=TREND (C50:C0,%50:%0,50).

[3] = target: Chymotrypsin, from human pancreas (Homo sapiens, UniProt P17538); assay: Enzymatic assay, chymotrypsin
[4] = target: T1, Elastase from human neutrophils (Homo sapiens, UniProt P08246); assay: Enzymatic assay, elastase; conditions: Elastase IC50
T1 sequence (P08246 30-267): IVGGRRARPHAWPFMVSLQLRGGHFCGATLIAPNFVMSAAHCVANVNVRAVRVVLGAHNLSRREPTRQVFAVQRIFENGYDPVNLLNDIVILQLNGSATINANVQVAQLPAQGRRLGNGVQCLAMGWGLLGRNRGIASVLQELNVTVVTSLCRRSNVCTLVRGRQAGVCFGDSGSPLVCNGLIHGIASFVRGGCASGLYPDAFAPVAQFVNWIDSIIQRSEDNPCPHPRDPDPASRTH

Sequence of Chymotrypsin, from human pancreas (P17538 19-263): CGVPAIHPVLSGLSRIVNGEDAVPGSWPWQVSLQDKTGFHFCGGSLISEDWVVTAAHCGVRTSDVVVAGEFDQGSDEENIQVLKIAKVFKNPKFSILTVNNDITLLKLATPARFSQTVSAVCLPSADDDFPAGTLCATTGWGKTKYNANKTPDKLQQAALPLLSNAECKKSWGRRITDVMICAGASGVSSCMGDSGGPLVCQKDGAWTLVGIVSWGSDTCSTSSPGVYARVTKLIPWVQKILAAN

Compound	Tryptase at 100 μM % [1]	Cytotoxicity LC50/GI50 Hela cells [2]	IC50 [3]	IC50 [4]
CC[C@H](C)[C@@H]1NC(=O)[C@@H]2CCCN2C(=O)[C@@H]2CCCN2C(=O)[C@H](CC(=O)O)NC(=O)[C@H]([C@H](C)O)NC(=O)[C@H](CCCCN)NC(=O)[C@H]([C@@H](C)O)NC(=O)[C@@H]2CSSC[C@H](NC1=O)C(=O)N[C@@H](CO)C(=O)N1CCC[C@@H]1C(=O)N1CCC[C@H]1C(=O)N[C@@H](Cc1ccccc1)C(=O)N2 [Ex. 24] (HELM PEPTIDE1{F.C.T.K.[C[C@H](O)[C@H](N[*:1])C(=O)[*:2]].D.P.P.I.C.S.[dP].P}$PEPTIDE1,PEPTIDE1,2:R3-10:R3|PEPTIDE1,PEPTIDE1,1:R1-13:R2$$$V2.0)	0%	99 µM	–	–
CCCCCC[C@@H]1NC(=O)[C@H](CO)NC(=O)[C@H](C)NC(=O)[C@H]([C@@H](C)O)NC(=O)[C@@H]2CSSC[C@H](NC(=O)[C@H](CCC(N)=O)NC(=O)[C@@H]3CCCN3C(=O)[C@@H]3CCCN3C1=O)C(=O)N[C@@H](Cc1ccc(O)cc1)C(=O)N1CCC[C@@H]1C(=O)N1CCC[C@H]1C(=O)N[C@@H](CCCC)C(=O)N2 [Ex. 80] (HELM PEPTIDE1{[Nle].C.T.A.S.[CCCCCC[C@H](N[*:1])C(=O)[*:2]].P.P.Q.C.Y.[dP].P}$PEPTIDE1,PEPTIDE1,2:R3-10:R3|PEPTIDE1,PEPTIDE1,1:R1-13:R2$$$V2.0)	–	12 µM	> 20 µM	0.035 µM
CCCC[C@@H]1NC(=O)[C@@H]2CCCN2C(=O)[C@H]2CCCN2C(=O)[C@H](Cc2ccc(O)cc2)NC(=O)[C@@H]2CSSC[C@H](NC1=O)C(=O)N[C@@H]([C@@H](C)O)C(=O)N[C@@H](C)C(=O)N[C@@H](CO)C(=O)N[C@@H](CCC(C)C)C(=O)N1CCC[C@H]1C(=O)N1CCC[C@H]1C(=O)N[C@@H](CCC(N)=O)C(=O)N2 [Ex. 83] (HELM PEPTIDE1{[Nle].C.T.A.S.[CC(C)CC[C@H](N[*:1])C(=O)[*:2]].P.P.Q.C.Y.[dP].P}$PEPTIDE1,PEPTIDE1,2:R3-10:R3|PEPTIDE1,PEPTIDE1,1:R1-13:R2$$$V2.0)	–	12 µM	100 µM	0.043 µM
CCCC[C@@H]1NC(=O)[C@@H]2CCCN2C(=O)[C@H]2CCCN2C(=O)[C@H](Cc2ccc(O)cc2)NC(=O)[C@@H]2CSSC[C@H](NC1=O)C(=O)N[C@@H]([C@@H](C)O)C(=O)N[C@@H](C)C(=O)N[C@@H](CO)C(=O)N[C@@H]([C@@H](C)CC)C(=O)N1CCC[C@H]1C(=O)N1CCC[C@H]1C(=O)N[C@@H](Cc1ccccc1)C(=O)N2 [Ex. 89] (HELM PEPTIDE1{[Nle].C.T.A.S.I.P.P.F.C.Y.[dP].P}$PEPTIDE1,PEPTIDE1,2:R3-10:R3|PEPTIDE1,PEPTIDE1,1:R1-13:R2$$$V2.0)	–	51 µM	–	0.043 µM
CCCC[C@@H]1NC(=O)[C@@H]2CCCN2C(=O)[C@H]2CCCN2C(=O)[C@H](CCCNC(=N)N)NC(=O)[C@@H]2CSSC[C@H](NC1=O)C(=O)N[C@@H]([C@@H](C)O)C(=O)N[C@@H](C)C(=O)N[C@@H](CO)C(=O)N[C@@H]([C@@H](C)CC)C(=O)N1CCC[C@H]1C(=O)N1CCC[C@H]1C(=O)N[C@@H](CCC(N)=O)C(=O)N2 [Ex. 92] (HELM PEPTIDE1{[Nle].C.T.A.S.I.P.P.Q.C.R.[dP].P}$PEPTIDE1,PEPTIDE1,2:R3-10:R3|PEPTIDE1,PEPTIDE1,1:R1-13:R2$$$V2.0)	–	93 µM	–	0.043 µM
CCCC[C@@H]1NC(=O)[C@@H]2CCCN2C(=O)[C@H]2CCCN2C(=O)[C@H](CO)NC(=O)[C@@H]2CSSC[C@H](NC1=O)C(=O)N[C@@H]([C@@H](C)O)C(=O)N[C@@H](C)C(=O)N[C@@H](CO)C(=O)N[C@@H]([C@@H](C)CC)C(=O)N1CCC[C@H]1C(=O)N1CCC[C@H]1C(=O)N[C@@H](CCC(N)=O)C(=O)N2 [Ex. 93] (HELM PEPTIDE1{[Nle].C.T.A.S.I.P.P.Q.C.S.[dP].P}$PEPTIDE1,PEPTIDE1,2:R3-10:R3|PEPTIDE1,PEPTIDE1,1:R1-13:R2$$$V2.0)	5.6%	100 µM	–	0.041 µM
CC[C@H](C)[C@@H]1NC(=O)[C@H](CO)NC(=O)[C@H](C)NC(=O)[C@H]([C@@H](C)O)NC(=O)[C@@H]2CSSC[C@H](NC(=O)[C@H](CCC(N)=O)NC(=O)[C@@H]3CCCN3C(=O)[C@@H]3CCCN3C1=O)C(=O)N[C@@H](Cc1ccc(O)cc1)C(=O)N1CCC[C@@H]1C(=O)N1CCC[C@H]1C(=O)N[C@@H](CCC(C)C)C(=O)N2 [Ex. 100] (HELM PEPTIDE1{[CC(C)CC[C@H](N[*:1])C(=O)[*:2]].C.T.A.S.I.P.P.Q.C.Y.[dP].P}$PEPTIDE1,PEPTIDE1,2:R3-10:R3|PEPTIDE1,PEPTIDE1,1:R1-13:R2$$$V2.0)	–	83 µM	–	–
CCCC[C@@H]1NC(=O)[C@@H]2CCCN2C(=O)[C@H]2CCCN2C(=O)[C@H](Cc2ccc(O)cc2)NC(=O)[C@@H]2CSSC[C@H](NC1=O)C(=O)N[C@@H]([C@@H](C)O)C(=O)N[C@@H](C)C(=O)N[C@@H](CO)C(=O)N[C@@H](CC1CCCC1)C(=O)N1CCC[C@H]1C(=O)N1CCC[C@H]1C(=O)N[C@@H](CCC(N)=O)C(=O)N2 [Ex. 112] (HELM PEPTIDE1{[Nle].C.T.A.S.[O=C([C@H](CC1CCCC1)N[*:1])[*:2]].P.P.Q.C.Y.[dP].P}$PEPTIDE1,PEPTIDE1,2:R3-10:R3|PEPTIDE1,PEPTIDE1,1:R1-13:R2$$$V2.0)	–	33 µM	–	–
CC[C@H](C)[C@@H]1NC(=O)[C@@H]2CCCN2C(=O)[C@H]2CCCN2C(=O)[C@H](Cc2ccc(O)cc2)NC(=O)[C@@H]2CSSC[C@H](NC1=O)C(=O)N[C@@H]([C@@H](C)O)C(=O)N[C@@H](C)C(=O)N[C@@H](CO)C(=O)N[C@@H](CC(C)C)C(=O)N1CCC[C@H]1C(=O)N1CCC[C@H]1C(=O)N[C@@H](Cc1ccc(O)cc1)C(=O)N2 [Ex. 114] (HELM PEPTIDE1{I.C.T.A.S.L.P.P.Y.C.Y.[dP].P}$PEPTIDE1,PEPTIDE1,2:R3-10:R3|PEPTIDE1,PEPTIDE1,1:R1-13:R2$$$V2.0)	–	34 µM	–	0.047 µM
CCCC[C@@H]1NC(=O)[C@@H]2CCCN2C(=O)[C@@H](CC(=O)O)NC(=O)[C@H](Cc2ccc(O)cc2)NC(=O)[C@@H]2CSSC[C@H](NC1=O)C(=O)N[C@@H]([C@@H](C)O)C(=O)N[C@@H](C)C(=O)N[C@@H](CO)C(=O)N[C@@H]([C@@H](C)CC)C(=O)N1CCC[C@H]1C(=O)N1CCC[C@H]1C(=O)N[C@@H](CCC(N)=O)C(=O)N2 [Ex. 115] (HELM PEPTIDE1{[Nle].C.T.A.S.I.P.P.Q.C.Y.[dD].P}$PEPTIDE1,PEPTIDE1,2:R3-10:R3|PEPTIDE1,PEPTIDE1,1:R1-13:R2$$$V2.0)	–	51 µM	27.8 µM	0.038 µM
CCCC[C@@H]1NC(=O)[C@@H]2CCCN2C(=O)[C@@H](CCCNC(=N)N)NC(=O)[C@H](Cc2ccc(O)cc2)NC(=O)[C@@H]2CSSC[C@H](NC1=O)C(=O)N[C@@H]([C@@H](C)O)C(=O)N[C@@H](C)C(=O)N[C@@H](CO)C(=O)N[C@@H]([C@@H](C)CC)C(=O)N1CCC[C@H]1C(=O)N1CCC[C@H]1C(=O)N[C@@H](CCC(N)=O)C(=O)N2 [Ex. 117] (HELM PEPTIDE1{A.S.I.P.P.Q.C.Y.[dR].P.[Nle].C.T}$PEPTIDE1,PEPTIDE1,7:R3-12:R3|PEPTIDE1,PEPTIDE1,1:R1-13:R2$$$V2.0)	–	29 µM	–	0.033 µM
CCCC[C@@H]1NC(=O)[C@@H]2CCCN2C(=O)[C@H]2CCCCN2C(=O)[C@H](Cc2ccc(O)cc2)NC(=O)[C@@H]2CSSC[C@H](NC1=O)C(=O)N[C@@H]([C@@H](C)O)C(=O)N[C@@H](C)C(=O)N[C@@H](CO)C(=O)N[C@@H]([C@@H](C)CC)C(=O)N1CCC[C@H]1C(=O)N1CCC[C@H]1C(=O)N[C@@H](CCC(N)=O)C(=O)N2 [Ex. 120] (HELM PEPTIDE1{A.S.I.P.P.Q.C.Y.[O=C([C@H]1CCCCN1[*:1])[*:2]].P.[Nle].C.T}$PEPTIDE1,PEPTIDE1,7:R3-12:R3|PEPTIDE1,PEPTIDE1,1:R1-13:R2$$$V2.0)	–	38 µM	–	0.029 µM
CCCC[C@@H]1NC(=O)[C@H](CO)NC(=O)[C@H]2CCCN2C(=O)[C@H](Cc2ccc(O)cc2)NC(=O)[C@@H]2CSSC[C@H](NC1=O)C(=O)N[C@@H]([C@@H](C)O)C(=O)N[C@@H](C)C(=O)N[C@@H](CO)C(=O)N[C@@H]([C@@H](C)CC)C(=O)N1CCC[C@H]1C(=O)N1CCC[C@H]1C(=O)N[C@@H](CCC(N)=O)C(=O)N2 [Ex. 124] (HELM PEPTIDE1{A.S.I.P.P.Q.C.Y.[dP].S.[Nle].C.T}$PEPTIDE1,PEPTIDE1,7:R3-12:R3|PEPTIDE1,PEPTIDE1,1:R1-13:R2$$$V2.0)	–	40 µM	–	0.04 µM

Source: patent US8658604B2, “Template-fixed beta-hairpin peptidomimetics with protease inhibitory activity” (Polyphor Ltd, priority 2005, dated 2014)
